Measured values from article PMC10632401, “Cell-free biosynthesis combined with deep learning accelerates de novo-development of antimicrobial peptides” (Nature Communications, 2023).
≈ marks a conversion by molar mass, not a printed value. Like-named read-outs stand apart in the source and are kept apart here. Residues, ends and D or L forms follow the SMILES beside them. No end group written: not given here.

Key:
[1] = tested on: A. baumannii (isolate from the human abdominal wall); settings: 20 h
P. aeruginosa DSM 1117 = settings: DSM 1117, 20 h
[2] = tested on: S. aureus DSM 11729 (MRSA); settings: DSM 11729, 20 h
[3] = tested on: E. faecium (isolate from the gut of the cow); settings: 20 h
E. coli MG1655 = settings: MG1655, 20 h
B. subtilis PY79 = settings: PY79, 20 h
in vitro = settings: human
S. pneumoniae D39 = settings: D39, 20 h
K. pneumoniae DSM 30104 = settings: DSM 30104, 20 h

Compound	MIC A. baumannii [1] [µM]	MIC P. aeruginosa (P. aeruginosa DSM 1117) [µM]	MIC S. aureus (MRSA) [2] [µM]	MIC E. faecium [3] [µM]	E. coli MIC (E. coli MG1655) [µM]	B. subtilis MIC (B. subtilis PY79) [µM]	CC50 at 24 h (in vitro) [µM]	MIC S. pneumoniae (S. pneumoniae D39) [µM]	MIC K. pneumoniae (K. pneumoniae DSM 30104) [µM]	CC50 (in vitro) [µM]	CC50 [µM]
H-MKEKKFFFFCFKKRRGFYKRRFFCKTTCFTYCFYKPRGTKTMPYVFSE-NH2 (cysteines drawn unpaired) [AMP #14]	25.0	12.5	25.0	6.3	–	–	–	–	–	–	–
MRRKTPVKWKTFFKALKHKKKIFKKTFEKFKFLAKGPAFLKGFDQKLKS-NH2 [AMP #5]	1.0	3.1	–	1.6	2.1	0.5	68.4	25.0	0.8	–	–
H-MWFDRKKFFWPGVCLFLLFFPKRFYKKGPEKVFSFRKKYKFARKCKCKL-NH2 (cysteines drawn unpaired) [AMP #12]	–	25.0	–	12.5	–	–	–	–	25.0	–	–
CC[C@H](C)[C@H](NC(=O)[C@H](CCCNC(=N)N)NC(=O)[C@H](CCCNC(=N)N)NC(=O)[C@@H](NC(=O)[C@H](C)NC(=O)[C@H](CCC(=O)O)NC(=O)[C@H](CCCCN)NC(=O)[C@H](CCCNC(=N)N)NC(=O)[C@H](CO)NC(=O)[C@H](CCCNC(=N)N)NC(=O)[C@H](CC(C)C)NC(=O)[C@@H](NC(=O)[C@H](CC(N)=O)NC(=O)[C@H](CCCNC(=N)N)NC(=O)[C@@H](NC(=O)[C@H](CCCCN)NC(=O)[C@H](CCSC)NC(=O)[C@@H](N)CCSC)[C@@H](C)CC)[C@@H](C)O)C(C)C)C(=O)N[C@@H](Cc1ccccc1)C(=O)N[C@@H](CO)C(=O)N[C@@H](CC(C)C)C(=O)N[C@@H](CCCNC(=N)N)C(=O)N[C@@H](CCCNC(=N)N)C(=O)N[C@@H](CCCNC(=N)N)C(=O)N[C@@H](CO)C(=O)N[C@H](C(=O)N[C@@H](Cc1ccccc1)C(=O)N[C@H](C(=O)N[C@@H](CCC(=O)O)C(=O)N[C@@H](CCSC)C(=O)N[C@@H](C)C(=O)N[C@@H](CCCNC(=N)N)C(=O)N[C@@H](C)C(=O)N[C@@H](Cc1ccccc1)C(=O)N[C@@H](CCCNC(=N)N)C(=O)N[C@@H](CCCNC(=N)N)C(=O)N[C@@H](Cc1ccccc1)C(=O)N[C@@H](CCCCN)C(=O)N[C@@H](C)C(=O)N[C@@H](CCCNC(=N)N)C(N)=O)[C@@H](C)O)C(C)C [AMP #28] (H-MMKIRNTLRSRKEAVRRIFSLRRRSVFTEMARAFRRFKAR-NH2)	1.6 (≈ 8.05 µg/mL)	25.0 (≈ 126 µg/mL)	–	3.1 (≈ 15.6 µg/mL)	25.0	0.4	145	–	12.5 (≈ 62.9 µg/mL)	–	–
MLFGSRAKKYGKEAKQEKSFQYPKSSFVACKKKWKRSKHFFKTFKKKVS-NH2 [AMP #1]	–	–	–	–	> 100	0.8	113	–	–	–	–
CC[C@H](C)[C@H](NC(=O)[C@H](CO)NC(=O)[C@H](CO)NC(=O)[C@H](CO)NC(=O)[C@H](CCCNC(=N)N)NC(=O)[C@@H](NC(=O)[C@H](CO)NC(=O)[C@@H](N)CCSC)[C@@H](C)O)C(=O)N[C@@H](CCCNC(=N)N)C(=O)N[C@@H](CCCNC(=N)N)C(=O)N[C@@H](CC(C)C)C(=O)N[C@H](C(=O)N[C@@H](CCC(=O)O)C(=O)N[C@@H](C)C(=O)N[C@H](C(=O)N[C@@H](CCCNC(=N)N)C(=O)N[C@H](C(=O)N[C@@H](CCCNC(=N)N)C(=O)N[C@@H](Cc1ccccc1)C(=O)N[C@@H](CCCNC(=N)N)C(=O)N[C@@H](C)C(=O)N[C@@H](C)C(=O)N[C@@H](CC(C)C)C(=O)N[C@@H](CCCNC(=N)N)C(=O)N[C@H](C(=O)N[C@H](C(=O)N[C@@H](CC(C)C)C(=O)N[C@@H](Cc1ccccc1)C(=O)N[C@@H](Cc1ccccc1)C(=O)N[C@@H](C)C(=O)N[C@@H](CC(C)C)C(=O)N[C@@H](CCCNC(=N)N)C(=O)N[C@H](C(=O)N[C@H](C(=O)N[C@@H](CCCCN)C(=O)N[C@@H](CCCNC(=N)N)C(=O)N[C@@H](CCCNC(=N)N)C(=O)N1CCC[C@H]1C(=O)N[C@@H](CCCNC(=N)N)C(=O)N[C@@H](CCCNC(=N)N)C(N)=O)[C@@H](C)O)[C@@H](C)O)C(C)C)[C@@H](C)O)[C@@H](C)O)C(C)C)C(C)C [AMP #23] (H-MSTRSSSIRRLVEAVRTRFRAALRTVLFFALRTTKRRPRR-NH2)	–	–	–	–	20.8	1.6	–	–	–	79.1	–
MNTTSNMIHRAVQQKRISFRAAKLTVLFLFKRRLLRRLLRHHEN-NH2 [AMP #27]	2.4	12.5	–	1.6	12.5	0.4	75.7	–	6.3	–	–
MYLKKFLALKNSLKKLSPFKCAVKSWLKKCAEVTFYSKLLGRRGKKDGN-NH2 (cysteines drawn unpaired) [AMP #6]	6.3	25.0	–	6.3	25.0	2.1	67.5	–	12.5	–	–
MKAKKWFESLFKTFFKKGKGIYPKSSFEKEKKTDKKKKFGGWVWFKK-NH2 [AMP #16]	1.6	12.5	–	1.6	6.3	0.8	39.3	–	2.4	–	–
MEAFKKKPRLPLFKVKLTRFLERARGLGSYRIFEFFKKFGVKKFVSSLR-NH2 [AMP #15]	1.6	12.5	–	1.6	25.0	0.8	30.7	25.0	1.6	–	–
MKQPSKTKTHFKYFLLFLKSVKKVAGFKKKKKKYHWRSYKEGSCFRKRT-NH2 [AMP #13]	3.1	12.5	–	1.6	25.0	1.6	25.8	12.5	6.3	–	–
MKLRRRLRTRMVALLVLGVLFLLMLFFIIFLRRMLMRRFRA-NH2 [AMP #26]	–	–	–	–	100.0	37.5	–	–	–	> 250	–
MKKKKKGILKQNNKKKKYTLFNRMVVFLFLGFIMIIFVQKYKKVIYHK-NH2 [AMP #29]	–	–	–	–	12.5	6.3	> 250	–	–	–	–
H-MCFCRYRFFYRRRIRFFKWGPYFYVWFGFPFGRKAFFLSVFRRRFC-NH2 (cysteines drawn unpaired) [AMP #19]	–	–	–	–	25.0	8.4	–	–	–	–	> 250
H-MCFFPRRKSKVKVKGGLCRLLFIFFKTTFCFKAKTKKEIKKGTGKKIVR-NH2 (cysteines drawn unpaired) [AMP #18]	–	–	–	–	50.0	3.1	–	–	–	–	153
MRNFFKKTRLKYKGKKELIKKSRAFGLKTKKRSGFFFPRALKYEEEFY-NH2 [AMP #7]	–	–	–	–	> 100	1.6	133	–	–	–	–
MGWWFPPKTGNGAGKAFKKAAAAKWGGLFLKAAWFANKGEWGGGFPKGY-NH2 [AMP #9]	–	–	–	6.3	25.0	3.1	146	–	25.0	–	–
MWIKWKKPRKWGRRLKKKEKEELGDYIYLYCKVYRLFGFLPYFISKKTA-NH2 [AMP #17]	6.3	–	–	6.3	12.5	6.3	134	–	–	–	–
CC[C@H](C)[C@H](NC(=O)CNC(=O)[C@@H](N)CCSC)C(=O)NCC(=O)N[C@@H](CCCCN)C(=O)N[C@@H](Cc1ccccc1)C(=O)N[C@@H](CCC(N)=O)C(=O)N[C@@H](CCCCN)C(=O)N[C@@H](CCSC)C(=O)N[C@@H](CCCNC(=N)N)C(=O)N[C@@H](Cc1ccccc1)C(=O)N[C@H](C(=O)NCC(=O)N[C@@H](C)C(=O)N[C@H](C(=O)N[C@@H](CCCNC(=N)N)C(=O)N[C@@H](C)C(=O)N[C@@H](CO)C(=O)N[C@@H](CCCCN)C(=O)NCC(=O)N[C@H](C(=O)N[C@@H](C)C(=O)N[C@@H](CCCCN)C(=O)NCC(=O)N[C@@H](CC(C)C)C(=O)N[C@@H](CC(C)C)C(=O)N[C@@H](CCCNC(=N)N)C(=O)N[C@H](C(=O)N[C@@H](C)C(=O)N[C@@H](C)C(=O)N[C@H](C(=O)N[C@@H](CCCNC(=N)N)C(=O)N[C@H](C(=O)NCC(=O)N[C@@H](CCCNC(=N)N)C(=O)N[C@@H](CCCNC(=N)N)C(=O)N[C@@H](C)C(=O)N[C@@H](CC(C)C)C(=O)N[C@H](C(=O)N[C@H](C(N)=O)[C@@H](C)O)[C@@H](C)O)[C@@H](C)O)[C@@H](C)CC)[C@@H](C)CC)C(C)C)[C@@H](C)CC)[C@@H](C)CC [AMP #21] (H-MGIGKFQKMRFIGAIRASKGVAKGLLRIAAIRTGRRALTT-NH2)	0.8 (≈ 3.45 µg/mL)	12.5 (≈ 53.9 µg/mL)	–	6.3 (≈ 27.2 µg/mL)	10.4	0.5	> 250	–	25.0 (≈ 108 µg/mL)	–	–
MAIRIIGRLARVRARVVARVRSRLLADDPPEDLLRVARRRKGRRWLFLS-NH2 [AMP #24]	–	–	–	6.3	25.0	1.6	91.7	–	–	–	–
MNNRGPLGRRFKARRKWKKFVAGKMKKKRKRFKGFKKKGGFTPFVKKFV-NH2 [AMP #3]	6.3	–	–	1.6	12.5	0.8	68	–	–	–	–
H-MCFCFKAGPKICRGLQRKKKKFKYQTSFTKTGFGFLTKPKSPAR-NH2 (cysteines drawn unpaired) [AMP #10]	–	–	–	–	50.0	0.6	–	–	–	–	105
